What follows are compounds tested against hTREM2 (Homo sapiens, UniProt Q9NZC2) (assay: TREM2 agonist potency by Syk phosphorylation (AlphaLisa) in HEK293T-hTREM2 cells, used for Examples 306-429). Details: HEK293 Cells.
Format: cell-based
Parameters: expressed in transfected cells; host or cells: HEK293T (HEK293T-hTREM2 cells)
Description: In vitro Measurement of Triggering Receptor Expressed on Myeloid Cells 2 activity using cellular phosphorylation of Spleen Tyrosine Kinase (“Syk”) Assays used for Examples 306-429
Measurement of TREM2 agonist potency was done using a HEK cell line expressing human TREM2 and DAP12 (HEK293T-hTREM2 cells). Binding of small molecules to, and activation of, TREM2 increases the phosphorylation of Syk. The resultant levels of Syk phosphorylation were measured using a commercial AlphaLisa reagent kit. To perform the assay, HEK-hTREM2 cells were plated at 14,000 cells per well in a 384 well plate, in 25 μL, of complete growth media and incubated at 37° C., 5% CO2 for 20-24 hours. Prior to the assay, test compounds were diluted in the 384 well plates in assay buffer and allowed to equilibrate for 30 minutes. Growth media was removed from cell plates by inversion on blotting paper, and 25 μL of test compounds in assay buffer was added to cells. Cells were incubated for 45 minutes at room temperature. After 45 minutes, assay buffer was removed and 10 μL of lysis buffer was added. Plates were shaken for 20 minutes at 350 RPM at room temperature. After complete lysis, AlphaLisa reagents were added to the lysate, and fluourescence intensity was measured using a Perkin Elmer Envision plate reader. Intensities were used to generate a standard curve, and % activation was calculated. Curve fitting was performed using Prism v9 software, log(agonist) vs response-variable slope (four parameters), and EC50s were calculated from the curve fit.
The results presented in Table 20 have been generated with the in vitro assay described above for Examples 306-429. This assay may be used to test any of the compounds described herein to assess and characterize a compound's ability to act as an agonist of TREM2.

Sequence of hTREM2 (Q9NZC2 19-230): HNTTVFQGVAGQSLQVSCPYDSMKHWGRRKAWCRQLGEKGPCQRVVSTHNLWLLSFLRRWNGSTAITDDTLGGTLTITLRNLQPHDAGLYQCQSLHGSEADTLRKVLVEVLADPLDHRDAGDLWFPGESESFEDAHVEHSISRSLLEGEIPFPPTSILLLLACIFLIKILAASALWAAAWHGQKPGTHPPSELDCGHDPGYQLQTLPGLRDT
Sequence of hTREM2 (O43914 22-113 partner): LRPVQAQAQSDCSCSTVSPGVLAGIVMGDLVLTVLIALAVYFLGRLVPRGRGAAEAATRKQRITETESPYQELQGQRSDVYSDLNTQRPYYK

SMILES	EC50 [nM]
Cc1nc2nc(N3C[C@@H](C)O[C@@H](c4cnn(C5CC5)c4)C3)nc(-c3ccc(Cl)cc3F)c2nc1C [Example 425, (2S,6R)-4-(4-(4-chloro-2-fluorophenyl)-6,7-dimethylpteridin-2-yl)-2-(1-cyclopropyl-1H-pyrazol-4-yl)-6-methylmorpholine]	≤ 50
Cc1cnc2c(-c3ccc(F)cc3F)nc([C@@H]3CCO[C@@H](c4cnn(C5CC5)c4)C3)nc2n1 [Example 338, 2-((2R,4R)-2-(1-cyclopropyl-1H-pyrazol-4-yl)tetrahydro-2H-pyran-4-yl)-4-(2,4-difluorophenyl)-7-methylpteridine]	500 to 3000
Cc1cnc2c(-c3ccc(Cl)cc3F)nc(N3C[C@@H](C)O[C@@H](c4cnn(C5CC5)c4)C3)cc2n1 (racemic) [Example 368, 4-(5-(4-chloro-2-fluorophenyl)-2-methylpyrido[3,4-b]pyrazin-7-yl)-2-(1-cyclopropyl-1H-pyrazol-4-yl)-6-methylmorpholine]	50 to 500
Cc1nc2cc(N3CCO[C@H](c4cnn(C5CC5)c4)C3)nc(-c3ccc(C(F)(F)F)nc3)c2nc1C [Example 385, (2R)-2-(1-cyclopropylpyrazol-4-yl)-4-[2,3-dimethyl-5-[6-(trifluoromethyl)-3-pyridyl]pyrido[3,4-b]pyrazin-7-yl]morpholine]	50 to 500
Cc1nc2cc(N3CCOC(c4cnn(C5CC5)c4)C3)nc(-c3ccc(F)cc3F)c2nc1C (stereo not shown) [Example 342, 2-(1-cyclopropyl-1H-pyrazol-4-yl)-4-(5-(2,4-difluorophenyl)-2,3-dimethylpyrido[3,4-b]pyrazin-7-yl)morpholine]	≤ 50
Cc1nc2cc(N3C[C@@H](C)O[C@@H](c4cnn(C5CC5)c4)C3)nc(C34CC(C(F)(F)F)(C3)C4)c2nc1C (racemic) [Example 379, 2-(1-cyclopropylpyrazol-4-yl)-4-[2,3-dimethyl-5-[3-(trifluoromethyl)-1-bicyclo[1.1.1]pentanyl]pyrido[3,4-b]pyrazin-7-yl]-6-methyl-morpholine]	50 to 500
Cc1cc(C2CC(c3cc4nc(C)ccc4c(-c4ccc(F)cc4F)n3)CCO2)ccn1 (stereo not shown) [Example 326, 5-(2,4-difluorophenyl)-2-methyl-7-(2-(2-methylpyridin-4-yl)tetrahydro-2H-pyran-4-yl)-1,6-naphthyridine]	≤ 50
Cc1nc2cc(N3C[C@@H](c4cnn(C5CC5)c4)O[C@@H](C)C3)nc(-c3ccc(F)cc3F)c2nc1C [Example 398, (2R,6S)-2-(1-cyclopropyl-1H-pyrazol-4-yl)-4-(5-(2,4-difluorophenyl)-2,3-dimethylpyrido[3,4-b]pyrazin-7-yl)-6-methylmorpholine]	≤ 50
Cc1cnc2c(C34CC(C(F)(F)F)(C3)C4)nc(N3CCO[C@H](c4cnn(C5CC5)c4)C3)nc2n1 [Example 359, (R)-2-(1-cyclopropyl-1H-pyrazol-4-yl)-4-(7-methyl-4-(3-(trifluoromethyl)bicyclo[1.1.1]pentan-1-yl)pteridin-2-yl)morpholine]	≤ 50
Cc1nc2nc(N3CC(C)OC(c4cnn(C5CC5)c4)C3)nc(-c3ccc(F)cc3F)c2nc1C (stereo not shown) [Example 369, 2-(1-cyclopropyl-1H-pyrazol-4-yl)-4-(4-(2,4-difluorophenyl)-6,7-dimethylpteridin-2-yl)-6-methylmorpholine]	≤ 50
Cc1cnc2c(-c3ccc(Cl)cc3F)nc(N3C[C@@H](c4cnn(C5CC5)c4)O[C@@H](C)C3)nc2n1 [Example 423, (2R,6S)-4-(4-(4-chloro-2-fluorophenyl)-7-methylpteridin-2-yl)-2-(1-cyclopropyl-1H-pyrazol-4-yl)-6-methylmorpholine]	50 to 500
Cc1cc(C2CC(c3cc4nc(C)c(C)cc4c(-c4ccc(Cl)cc4F)n3)CCO2)ccn1 (stereo not shown) [Example 327, 5-(4-chloro-2-fluorophenyl)-2,3-dimethyl-7-(2-(2-methylpyridin-4-yl)tetrahydro-2H-pyran-4-yl)-1,6-naphthyridine]	≤ 50
Cc1cc(C2CN(c3nc(-c4ccc(Cl)c(F)c4F)c4nc(C)c(C)nc4n3)CCO2)ccn1 (stereo not shown) [Example 337, 4-(4-(4-chloro-2,3-difluorophenyl)-6,7-dimethylpteridin-2-yl)-2-(2-methylpyridin-4-yl)morpholine]	≤ 50
Cc1cc([C@H]2C[C@@H](c3cc4nc(C)cnc4c(-c4ccc(F)cc4F)n3)CCO2)ccn1 (racemic) [Example 307, 5-(2,4-difluorophenyl)-2-methyl-7-(2-(2-methylpyridin-4-yl)tetrahydro-2H-pyran-4-yl)pyrido[3,4-b]pyrazine]	50 to 500
Cc1nc2nc(N3CCOC(c4cnn(C5CC5)c4)C3)nc(-c3ccc(Cl)cc3F)c2nc1C (stereo not shown) [Example 381, 4-[4-(4-chloro-2-fluoro-phenyl)-6,7-dimethyl-pteridin-2-yl]-2-(1-cyclopropylpyrazol-4-yl)morpholine]	≤ 50
Cc1cc(C2CC(c3cc4nc(C)c(C)nc4c([C@]45C[C@](C(F)(F)F)(C4)C5)n3)CCO2)ccn1 (mixture of isomers) [Example 319, 2,3-dimethyl-7-(2-(2-methylpyridin-4-yl)tetrahydro-2H-pyran-4-yl)-5-(3-(trifluoromethyl)bicyclo[1.1.1]pentan-1-yl)pyrido[3,4-b]pyrazine]	≤ 50
Cc1cc(C2CN(c3cc4nc(C)cnc4c(-c4ccc(C(F)(F)F)nc4)n3)CCO2)ccn1 (stereo not shown) [Example 311, 4-(2-methyl-5-(6-(trifluoromethyl)pyridin-3-yl)pyrido[3,4-b]pyrazin-7-yl)-2-(2-methylpyridin-4-yl)morpholine]	50 to 500
Cc1cc([C@H]2CN(c3cc4nc(C)cnc4c(-c4ccc(F)cc4F)n3)CCO2)ccn1 [Example 334, (S)-4-(5-(2,4-difluorophenyl)-2-methylpyrido[3,4-b]pyrazin-7-yl)-2-(2-methylpyridin-4-yl)morpholine]	≤ 50
Cc1nc2cc(N3CCOC(c4cnn(C5CC5)c4)C3)nc(-c3ccc(C(F)(F)F)nc3)c2nc1C (stereo not shown) [Example 349, 2-(1-cyclopropyl-1H-pyrazol-4-yl)-4-(2,3-dimethyl-5-(6-(trifluoromethyl)pyridin-3-yl)pyrido[3,4-b]pyrazin-7-yl)morpholine]	≤ 50

Results, then the compound that gave them:

EC50 [nM]	SMILES
50 to 500	Cc1nc2cc([C@H]3CCO[C@@H](c4cnn(C5CC5)c4)C3)nc(-c3ccc(F)cc3F)c2nc1C (racemic) [Example 393, 7-[2-(1-cyclopropylpyrazol-4-yl)tetrahydropyran-4-yl]-5-(2,4-difluorophenyl)-2,3-dimethyl-pyrido[3,4-b]pyrazine]
50 to 500	Cc1nc2cc(N3C[C@@H](C)O[C@@H](c4cnn(C5CC5)c4)C3)nc(-c3ccc(F)cc3F)c2nc1C [Example 403, (2S,6R)-2-(1-cyclopropyl-1H-pyrazol-4-yl)-4-(5-(2,4-difluorophenyl)-2,3-dimethylpyrido[3,4-b]pyrazin-7-yl)-6-methylmorpholine]
500 to 3000	Cc1ccc2c(C(C)C)nc([C@H]3C[C@@H](C)O[C@@H](c4cnn(C5CC5)c4)C3)nc2n1 [Example 429, 2-((2R,4S,6R)-2-(1-cyclopropyl-1H-pyrazol-4-yl)-6-methyltetrahydro-2H-pyran-4-yl)-4-isopropyl-7-methylpyrido[2,3-d]pyrimidine]
50 to 500	Cc1cc([C@H]2C[C@H](c3cc4nc(C)c(C)nc4c(-c4ccc(C(F)(F)F)nc4)n3)CCO2)ccn1 (racemic) [Example 306]
≤ 50	Cc1cc([C@H]2C[C@@H](c3cc4nc(C)c(C)cc4c(-c4ccc(F)cc4F)n3)CCO2)ccn1 (racemic) [Example 399, 5-(2,4-difluorophenyl)-2,3-dimethyl-7-[2-(2-methyl-4-pyridyl)tetrahydropyran-4-yl]-1,6-naphthyridine]
50 to 500	Cc1cc([C@H]2C[C@@H](c3cc4nc(C)cnc4c(-c4ccc(C(F)(F)F)nc4)n3)CCO2)ccn1 (racemic) [Example 308, 2-methyl-7-(2-(2-methylpyridin-4-yl)tetrahydro-2H-pyran-4-yl)-5-(6-(trifluoromethyl)pyridin-3-yl)pyrido[3,4-b]pyrazine]
≤ 50	Cc1nc2nc(N3C[C@@H](c4cnn(C5CC5)c4)O[C@@H](C)C3)nc(C34CC(C(F)(F)F)(C3)C4)c2nc1C [Example 410, (2R,6S)-2-(1-cyclopropyl-1H-pyrazol-4-yl)-4-(6,7-dimethyl-4-(3-(trifluoromethyl)bicyclo[1.1.1]pentan-1-yl)pteridin-2-yl)-6-methylmorpholine]
≤ 50	Cc1cc(C2CN(c3cc4nc(C)c(C)cc4c(-c4ccc(Cl)cc4F)n3)CCO2)ccn1 (stereo not shown) [Example 344, 4-(5-(4-chloro-2-fluorophenyl)-2,3-dimethyl-1,6-naphthyridin-7-yl)-2-(2-methylpyridin-4-yl)morpholine]
≤ 50	Cc1cnc2c(C34CC(C(F)(F)F)(C3)C4)nc([C@H]3CCO[C@@H](c4cnn(C5CC5)c4)C3)nc2n1 [Example 407, 2-((2R,4S)-2-(1-cyclopropyl-1H-pyrazol-4-yl)tetrahydro-2H-pyran-4-yl)-7-methyl-4-(3-(trifluoromethyl)bicyclo[1.1.1]pentan-1-yl)pteridine]

— patent US11884675B2, “Heterocyclic compounds as triggering receptor expressed on myeloid cells 2 agonists and methods of use” (AMGEN INC., priority 2020, dated 2024)
